Measurements as given in patent US11168075B2, “Compounds and their use for reducing uric acid levels” (Acquist LLC, priority 2016, dated 2021).
Read-outs that look alike come from different tables or passages of the source.

Target: xanthine oxidase (Homo sapiens (Human), UniProt P47989)
Assay: Fluorescence-based xanthine oxidase activity assay
Assay type: biochemical
Conditions: for inhibition of xanthine oxidase compared to allopurinol: statement in words
[1] = read-out: Xanthine Oxidase IC50

Sequence of xanthine oxidase (P47989 whole entry, species assumed): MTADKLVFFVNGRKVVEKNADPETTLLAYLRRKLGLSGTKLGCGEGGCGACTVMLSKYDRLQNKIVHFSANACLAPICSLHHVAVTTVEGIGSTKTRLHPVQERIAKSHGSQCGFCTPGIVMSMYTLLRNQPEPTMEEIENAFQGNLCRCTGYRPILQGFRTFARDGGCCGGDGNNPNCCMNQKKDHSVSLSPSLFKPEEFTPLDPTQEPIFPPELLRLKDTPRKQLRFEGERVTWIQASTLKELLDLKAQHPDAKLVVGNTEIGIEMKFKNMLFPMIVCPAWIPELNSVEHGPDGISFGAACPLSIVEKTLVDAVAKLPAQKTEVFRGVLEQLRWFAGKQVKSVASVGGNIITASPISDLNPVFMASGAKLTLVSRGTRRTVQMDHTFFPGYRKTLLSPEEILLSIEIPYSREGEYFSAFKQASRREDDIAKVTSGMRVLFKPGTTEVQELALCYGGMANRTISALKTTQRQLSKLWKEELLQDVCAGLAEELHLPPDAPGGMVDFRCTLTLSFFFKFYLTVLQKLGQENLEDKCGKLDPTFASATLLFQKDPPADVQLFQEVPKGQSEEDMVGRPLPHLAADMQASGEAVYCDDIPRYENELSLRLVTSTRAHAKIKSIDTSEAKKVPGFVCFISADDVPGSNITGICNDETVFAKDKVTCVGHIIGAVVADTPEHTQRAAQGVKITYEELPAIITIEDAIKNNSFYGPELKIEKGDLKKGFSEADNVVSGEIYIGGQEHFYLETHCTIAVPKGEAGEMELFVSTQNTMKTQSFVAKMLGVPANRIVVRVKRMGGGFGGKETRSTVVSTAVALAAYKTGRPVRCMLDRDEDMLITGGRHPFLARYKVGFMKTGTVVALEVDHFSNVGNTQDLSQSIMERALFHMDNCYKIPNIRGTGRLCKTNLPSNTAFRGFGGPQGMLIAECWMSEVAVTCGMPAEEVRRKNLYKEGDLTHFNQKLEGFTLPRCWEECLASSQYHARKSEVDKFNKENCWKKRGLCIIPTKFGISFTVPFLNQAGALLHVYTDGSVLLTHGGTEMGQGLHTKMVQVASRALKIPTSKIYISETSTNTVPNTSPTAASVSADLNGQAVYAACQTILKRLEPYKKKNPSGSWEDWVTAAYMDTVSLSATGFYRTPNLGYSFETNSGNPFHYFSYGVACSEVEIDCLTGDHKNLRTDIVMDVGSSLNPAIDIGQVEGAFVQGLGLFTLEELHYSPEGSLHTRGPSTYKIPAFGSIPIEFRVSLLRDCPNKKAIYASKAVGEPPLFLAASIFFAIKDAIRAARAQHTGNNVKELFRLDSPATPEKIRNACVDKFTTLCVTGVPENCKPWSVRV

SMILES	IC50 [1] [µM]	inhibition of xanthine oxidase compared to allopurinol	IC50 [µM]
O=C1NS(=O)(=O)c2cc(NC(=O)c3c(O)[nH]c(=O)[nH]c3=O)ccc21 [Formula (IIIa), N-(1,1-dioxido-3-oxo-2,3-dihydrobenzo[d]isothiazol-6-yl)-2,4,6-trihydroxypyrimidine-5-carboxamide]	4.5	–	–
COc1nc(O)c(C(=O)Nc2ccc(-c3cnn[nH]3)cc2)c(=O)[nH]1 [Formula (IIb), N-(4-(3H-1,2,3-triazol-4-yl)phenyl)-4-hydroxy-2-methoxy-6-oxo-1,6-dihydropyrimidine-5-carboxamide]	0.56	particularly potent inhibitors	–
CC(C)Sc1nc(O)c(C(=O)Nc2ccc(-c3c[nH]nn3)cc2)c(=O)[nH]1 [Formula (IId), N-(4-(1H-1,2,3-triazol-5-yl)phenyl)-4-hydroxy-2-(isopropylthio)-6-oxo-1,6-dihydropyrimidine-5-carboxamide]	–	particularly potent inhibitors	–
O=C(Nc1ccc2[nH]c(=O)[nH]c2c1)c1c(O)[nH]c(=O)[nH]c1=O [Formula (IVa), 6-hydroxy-2,4-dioxo-N-(2-oxo-2,3-dihydro-1H-benzo[d]imidazol-5-yl)-1,2,3,4-tetrahydropyrimidine-5-carboxamide]	8.6	–	–
O=C1Nc2ccc(NC(=O)c3c(O)[nH]c(=O)[nH]c3=O)cc2C1=O [Formula (IVb), N-(2,3-dioxoindolin-5-yl)-6-hydroxy-2,4-dioxo-1,2,3,4-tetrahydropyrimidine-5-carboxamide]	> 300	–	–
O=C(Nc1ccc2c(c1)C1(OCCO1)C(=O)N2)c1c(O)[nH]c(=O)[nH]c1=O [Formula (IVc), 6-Hydroxy-2,4-dioxo-N-(2′-oxospiro[[1,3]dioxolane-2,3′-indolin]-5′-yl)-1,2,3,4-tetrahydropyrimidine-5-carboxamide]	–	–	> 300
N=C(Nc1ccc(-c2cnn[nH]2)cc1)c1c(O)[nH]c(=O)[nH]c1=O [Formula (Ia), N-(4-(1H-1,2,3-triazol-4-yl)phenyl)-6-hydroxy-2,4-dioxo-1,2,3,4-tetrahydropyrimidine-5-carboximidamide]	0.25	particularly potent inhibitors	–
CS/C(=N\c1ccc(-c2cnn[nH]2)cc1)c1c(O)[nH]c(=O)[nH]c1=O [Formula (Ib), 5-(((4-(1H-1,2,3-triazol-5-yl)phenyl)amino)(methylthio)methylene)pyrimidine-2,4,6(1H,3H,5H)-trione]	–	–	54.1
O=c1[nH]c(O)c(/C(=N\O)Nc2ccc(-c3cnn[nH]3)cc2)c(=O)[nH]1 [Formula (Ic), (E)-N-(4-(1H-1,2,3-triazol-5-yl)phenyl)-N′-hydroxy-2,4,6-trioxohexahydro-pyrimidine-5-carboximidamide]	–	–	1.2
N/N=C(/Nc1ccc(-c2cnn[nH]2)cc1)c1c(O)[nH]c(=O)[nH]c1=O [Formula (Id), (E)-N-(4-(1H-1,2,3-triazol-5-yl)phenyl)-2,4,6-trioxohexahydropyrimidine-5-carbohydrazonamide]	–	–	> 300
Cn1c(O)c(C(=O)Nc2ccc(-c3cnn[nH]3)cc2)c(=O)n(C)c1=O [Formula (Ie), N-(4-(1H-1,2,3-triazol-4-yl)phenyl)-6-hydroxy-1,3-dimethyl-2,4-dioxo-1,2,3,4-tetrahydropyrimidine-5-carboxamide]	1.6	particularly potent inhibitors	–
Cn1c(O)c(C(=N)Nc2ccc(-c3cnn[nH]3)cc2)c(=O)n(C)c1=O [Formula (If), N-(4-(1H-1,2,3-triazol-5-yl)phenyl)-6-hydroxy-1,3-dimethyl-2,4-dioxo-1,2,3,4-tetrahydropyrimidine-5-carboximidamide]	0.2	particularly potent inhibitors	–
Cn1c(=O)[nH]c(O)c(C(=O)Nc2ccc(-c3cnn[nH]3)cc2)c1=O [Formula (Ig), N-(4-(1H-1,2,3-triazol-4-yl)phenyl)-2,4-dihydroxy-1-methyl-6-oxo-1,6-dihydropyrimidine-5-carboxamide]	0.55	particularly potent inhibitors	–
Cn1c(=O)[nH]c(O)c(C(=N)Nc2ccc(-c3cnn[nH]3)cc2)c1=O [Formula (Ih)]	–	particularly potent inhibitors	0.74
O=C(NC1CCC(c2c[nH]nn2)CC1)c1c(O)[nH]c(=O)[nH]c1=O (stereo not shown) [Formula (Ii)]	> 296	–	–
O=C(NC1CCC(O)(c2c[nH]nn2)CC1)c1c(O)[nH]c(=O)[nH]c1=O (stereo not shown) [Formula (Ij), 6-hydroxy-N-(4-hydroxy-4-(1H-1,2,3-triazol-4-yl)cyclohexyl)-2,4-dioxo-1,2,3,4-tetrahydropyrimidine-5-carboxamide]	13.1	–	–
Nc1[nH]c(=O)[nH]c(=O)c1C(=O)Nc1ccc(-c2c[nH]nn2)cc1 [Formula (Ik), N-(4-(1H-1,2,3-triazol-5-yl)phenyl)-6-amino-2,4-dioxo-1,2,3,4-tetrahydropyrimidine-5-carboxamide]	1.3	particularly potent inhibitors	–
O=C(Nc1c(O)[nH]c(=O)[nH]c1=O)c1ccc(-c2cnn[nH]2)cc1 [Formula (Il), 4-(1H-1,2,3-triazol-4-yl)-N-(2,4,6-trioxohexahydropyrimidin-5-yl)benzamide]	–	–	6.3
O=C(Nc1ccc(-c2[nH]nnc2-c2ccccc2)cc1)c1c(O)[nH]c(=S)[nH]c1=O [Formula (Im), 6-hydroxy-4-oxo-N-(4-(4-phenyl-1H-1,2,3-triazol-5-yl)phenyl)-2-thioxo-1,2,3,4-tetrahydropyrimidine-5-carboxamide]	18.2	–	–
O=C(Nc1ccc(-c2noc(C(F)(F)F)n2)cc1)c1c(O)[nH]c(=O)[nH]c1=O [Formula (In), 6-hydroxy-2,4-dioxo-N-(4-(5-(trifluoromethyl)-1,2,4-oxadiazol-3-yl)phenyl)-1,2,3,4-tetrahydropyrimidine-5-carboxamide]	–	–	292
O=C(NO)c1ccc(NC(=O)c2c(O)[nH]c(=O)[nH]c2=O)cc1 [Formula (VIIIa), 6-hydroxy-N-(4-(hydroxycarbamoyl)phenyl)-2,4-dioxo-1,2,3,4-tetrahydropyrimidine-5-carboxamide]	17.4	–	–
O=C(NO)c1cc(NC(=O)c2c(O)[nH]c(=O)[nH]c2=O)ccn1 [Formula (VIIIb), 6-hydroxy-N-(2-(hydroxycarbamoyl)pyridin-4-yl)-2,4-dioxo-1,2,3,4-tetrahydropyrimidine-5-carboxamide]	73.8	–	–
O=c1nc2[nH]n(-c3ccc(-c4cnn[nH]4)cc3)c(=O)c2c(O)[nH]1 [Formula (VIIa), 2-(4-(1H-1,2,3-triazol-5-yl)phenyl)-4,6-dihydroxy-1H-pyrazolo[3,4-d]pyrimidin-3(2H)-one]	7	–	–
O=c1[nH]c(=O)c2c(Nc3ccc(-c4cnn[nH]4)cc3)n[nH]c2[nH]1 [Formula (VIb), 3-((4-(1H-1,2,3-triazol-5-yl)phenyl)amino)-1H-pyrazolo[3,4-d]pyrimidine-4,6(5H,7H)-dione]	0.14	particularly potent inhibitors	–
Cn1c(=O)c2c(Nc3ccc(-c4cnn[nH]4)cc3)n[nH]c2n(C)c1=O [Formula (VIc), 3-((4-(1H-1,2,3-triazol-5-yl)phenyl)amino)-5,7-dimethyl-1H-pyrazolo[3,4-d]pyrimidine-4,6(5H,7H)-dione]	2.5	–	–
O=C(Nc1nc(O)c2cn[nH]c2n1)c1c(O)[nH]c(=O)[nH]c1=O [Formula (Va), 6-hydroxy-N-(4-hydroxy-1H-pyrazolo[3,4-d]pyrimidin-6-yl)-2,4-dioxo-1,2,3,4-tetrahydropyrimidine-5-carboxamide]	36.1	–	–
